Source: paper PMC8618934, “Synthesis, Crystal Structure, and Biological Evaluation of Novel 5-Hydroxymethylpyrimidines” (Materials, 2021)
Values after ≈ are worked out from the molar mass of the structure shown.

Columns and labels:
[1] = tested on: HeLa; assay: Neutral red uptake assay, HeLa; type: cell-based; conditions: Homo sapiens, 72 h incubation
Method: (§1) To all media (except for RPTEC), 2.5 µg mL^−1 amphotericin B, 100 U mL^−1 penicillin, and 100 µg mL^−1 streptomycin were added.
(§2) The cells were put in 96-well plates (1 × 10^5 cells per mL) of appropriate culture medium (100 µL per well). Before a general experiment, cells were attached for 24 h and then treated with various concentrations (500, 250, 100, and 10 µM) of pyrimidine derivatives and subsequently grown in 200 µL medium volume. […] The neutral red uptake assay was performed according to Repetto et al.. This method uses the ability of the living cells to accumulate dye in their lysosomes. […] Finally, the absorbance was measured at 540 nm using a Thermo Scientific™ Multiskan™ GO Microplate Spectrophotometer (Thermo Fisher).
(§3) The viability tests were conducted in quadruple wells (n = 4) for each condition. Values are presented as mean ± standard deviation (SD). Significant differences were calculated using one-way ANOVA, followed by post hoc comparison, and the half-maximal inhibitory concentration (IC50) was obtained by nonlinear regression using GraphPad Prism 9.1 for Windows, GraphPad Software, La Jolla, California, USA, www.graphpad.com.

[2] = tested on: HepaRG; assay: Neutral red uptake assay, HepaRG; type: cell-based, human; conditions: 72 h incubation
Method: as §1, §2, §3

[3] = tested on: Caco-2; assay: Neutral red uptake assay, Caco-2; type: cell-based; conditions: Homo sapiens, 72 h incubation
Method: as §1, §2
as §3, with “www.graphpad.com. A p-value < 0.05 was considered statistically significant.” for “www.graphpad.com.”

[4] = tested on: AGS; assay: Neutral red uptake assay, AGS; type: cell-based; conditions: Homo sapiens, 72 h incubation
Method: as §1, §2, §3

[5] = tested on: A172; assay: Neutral red uptake assay, A172; type: cell-based; conditions: Homo sapiens, A 172, 72 h incubation
Method: as §1, §2, §3

[6] = tested on: methicillin-resistant Staphylococcus aureus (MRSA); assay: Antimicrobial activity, broth microdilution MIC; type: cell-based; conditions: tested 256 to 0.5 µg mL^−1, 24 h, '-' not defined, no MIC in tested range
[7] = tested on: Acinetobacter baumannii; assay: Antimicrobial activity, broth microdilution MIC; type: cell-based; conditions: tested 256 to 0.5 µg mL^−1, 24 h, '-' not defined, no MIC in tested range
[8] = tested on: Enterococcus faecalis; assay: Antimicrobial activity, broth microdilution MIC; type: cell-based; conditions: tested 256 to 0.5 µg mL^−1, 24 h, '-' not defined, no MIC in tested range, read-out: MIC E. faecalis
[9] = tested on: normal human endothelial cells; set-up: method as in PMID 30284980; conditions: cited from earlier work
[10] = Neutral red uptake assay, viability of normal RPTEC cells; type: cell-based; conditions: human, 72 h treatment, vs control with 1% DMSO = 100%, read-out: Viability of RPTEC cell line
Method: For cytotoxicity assays, the following cell lines were used: human renal proximal tubule epithelial cells (RPTEC-MTOX1030), epithelioid cervix carcinoma (HeLa-93021013), colon adenocarcinoma (Caco-2-86010202), hepatocarcinoma (HepaRG-MTOX1010), gastric adenocarcinoma (AGS-89090402), and glioblastoma (A172-88062428) cells were cultured in appropriate media according to the European Collection of Authenticated Cell Cultures (ECACC) recommendation. To all media (except for RPTEC), 2.5 µg mL^−1 amphotericin B, 100 U mL^−1 penicillin, and 100 µg mL^−1 streptomycin were added. In addition, the RPTEC cell line was cultured in media with 30 μg mL^−1 gentamicin and 15 ng mL^−1 amphotericin B. Cell cultures were incubated at 37 °C in a humidified atmosphere with 5% CO2 for at least three passages until performing experiments. All cell lines were grown in monolayers; thus, detachment with 0.25% trypsin solution was required for further assays.
The cells were put in 96-well plates (1 × 10^5 cells per mL) of appropriate culture medium (100 µL per well). Before a general experiment, cells were attached for 24 h and then treated with various concentrations (500, 250, 100, and 10 µM) of pyrimidine derivatives and subsequently grown in 200 µL medium volume. […]. The cells were incubated for 24, 48, and 72 h at 37 °C in a humidified 5% CO2/95% air incubator. The neutral red uptake assay was performed according to Repetto et al.. This method uses the ability of the living cells to accumulate dye in their lysosomes. Briefly, at the end of each incubation time the cells were treated with neutral red solution (40 µg mL^−1) for 2 h at 37 °C. Afterwards, the cells were washed with PBS, and the incorporated dye was solubilized with the extraction solution (50% ethanol, 49% H2O, 1% glacial acetic acid). The plates were gently shaken for 30 min at 37 °C. Finally, the absorbance was measured at 540 nm using a Thermo Scientific™ Multiskan™ GO Microplate Spectrophotometer (Thermo Fisher).
as §3, with “www.graphpad.com. A p-value < 0.05 was considered statistically significant. All results were compared with the control with 1% DMSO, which was considered to be 100%.” for “www.graphpad.com.”

[11] = tested on: cancer cell lines; set-up: method as in PMID 30284980; conditions: range depending on the cancer cell line; cited from earlier work
[12] = tested on: Escherichia coli; assay: Antimicrobial activity, broth microdilution MIC; type: cell-based; conditions: tested 256 to 0.5 µg mL^−1, 24 h, '-' not defined, no MIC in tested range
[13] = tested on: Klebsiella pneumoniae; assay: Antimicrobial activity, broth microdilution MIC; type: cell-based; conditions: tested 256 to 0.5 µg mL^−1, 24 h, '-' not defined, no MIC in tested range, read-out: MIC K. pneumoniae
[14] = tested on: Candida albicans; assay: Antimicrobial activity, broth microdilution MIC; type: cell-based; conditions: tested 256 to 0.5 µg mL^−1, 24 h, '-' not defined, no MIC in tested range, read-out: MIC C. albicans
[15] = tested on: Pseudomonas aeruginosa; assay: Antimicrobial activity, broth microdilution MIC; type: cell-based; conditions: tested 256 to 0.5 µg mL^−1, 24 h, '-' not defined, no MIC in tested range, read-out: MIC P. aeruginosa

Structure (SMILES)	IC50 [1] [µM]	IC50 ([2]; Homo sapiens, HepaRG, 72 h) [µM]	IC50 [3] [µM]	IC50 [4] [µM]	IC50 [5] [µM]	melting point [°C]	further results
C=CCNc1nc(-c2ccccc2)nc(C)c1CO [Compound 3f, {4-methyl-2-phenyl-6-[(prop-2-en-1-yl)amino]pyrimidin-5-yl}methanol]	> 250	> 250	> 250	> 250	> 250	174 to 175	MIC [6]: 256 µg/mL (≈ 1000 µM)
CCCNc1nc(-c2ccccc2)nc(C)c1CO [Compound 3e, [4-methyl-2-phenyl-6-(propylamino)pyrimidin-5-yl]methanol]	> 250	> 250	> 250	> 250	> 250	158 to 159	MIC [7]: 256 µg/mL (≈ 995 µM); MIC [8]: 256 µg/mL (≈ 995 µM)
Cc1nc(-c2ccccc2)nc(SCc2ccc(Cl)cc2)c1C [4-[(4-chlorobenzyl)sulfanyl]-5,6-dimethyl-2-phenylpyrimidine]	–	–	–	–	–	–	survival of normal human endothelial cells [9]: 58%
Cc1nc(-c2ccccc2)nc(NC(C)(C)C)c1CO [Compound 3h, [4-(tert-butylamino)-6-methyl-2-phenylpyrimidin-5-yl]methanol]	> 250	132	> 250	> 250	> 250	173 to 174	IC50 [2]: 132 µM; MIC [7]: 256 µg/mL (≈ 943 µM)
Cc1ccccc1CSc1nc(-c2ccccc2)nc(C)c1CO [Compound 3b, (4-methyl-6-{[(2-methylphenyl)methyl]sulfanyl}-2-phenylpyrimidin-5-yl)methanol]	–	–	–	–	–	147	viability at 72 h, 10 µM [10]: 91%; viability at 72 h, 100 µM [10]: 44%; viability at 72 h, 250 µM [10]: 46%; viability at 72 h, 500 µM [10]: 34%
Cc1nc(-c2ccccc2)nc(SCc2ccc(Cl)cc2)c1CO [5-hydroxymethyl derivative]	–	–	–	–	–	–	survival of normal human endothelial cells [9]: 1%; IC50 [11]: 17 to 38 µM
Cc1nc(-c2ccccc2)nc(NCCO)c1CO [Compound 3i, 2-{[5-(hydroxymethyl)-6-methyl-2-phenylpyrimidin-4-yl]amino}ethan-1-ol]	> 250	> 250	> 250	> 250	> 250	141	–
CNC(C)C1CCC(N)C(OC2C(N)CC(N)C(OC3OCC(C)(O)C(NC)C3O)C2O)O1 (stereo not drawn) [Gentamicin, reference compound]	–	–	–	–	–	–	MIC [12]: 2 µg/mL (≈ 4.19 µM); MIC [13]: 2 µg/mL (≈ 4.19 µM)
Cc1nc(-c2ccccc2)nc(N)c1CO [Compound 3c, (4-amino-6-methyl-2-phenylpyrimidin-5-yl)methanol]	> 250	> 250	> 250	> 250	> 250	177 to 178	–
Cc1nc(-c2ccccc2)nc(SCc2ccccc2)c1CO [Compound 3a, [4-(benzylsulfanyl)-6-methyl-2-phenylpyrimidin-5-yl]methanol]	> 250	201	> 250	209	> 250	144 to 145	MIC [14]: 256 µg/mL (≈ 794 µM)
Cc1nc(-c2ccccc2)nc(NC(C)C)c1CO [Compound 3g, {4-methyl-2-phenyl-6-[(propan-2-yl)amino]pyrimidin-5-yl}methanol]	209	183	> 250	> 250	147	160	MIC [7]: 256 µg/mL (≈ 995 µM); MIC [12]: 128 µg/mL (≈ 497 µM)
CCNc1nc(-c2ccccc2)nc(C)c1CO [Compound 3d, [4-(ethylamino)-6-methyl-2-phenylpyrimidin-5-yl]methanol]	> 250	> 250	> 250	> 250	> 250	191	–
C[C@H]1COc2c(N3CCN(C)CC3)c(F)cc3c(=O)c(C(=O)O)cn1c23 [Levofloxacin, reference compound]	–	–	–	–	–	–	MIC [7]: 0.5 µg/mL (≈ 1.38 µM); MIC [15]: 1 µg/mL (≈ 2.77 µM); MIC [8]: 4 µg/mL (≈ 11.1 µM); MIC [6]: 1 µg/mL (≈ 2.77 µM)
Cc1nc(-c2ccccc2)nc(NC2CCCCC2)c1CO [Compound 3j, [4-(cyclohexylamino)-6-methyl-2-phenylpyrimidin-5-yl]methanol]	–	–	–	–	–	143	viability at 72 h, 10 µM [10]: 89%; viability at 72 h, 100 µM [10]: 28%; viability at 72 h, 250 µM [10]: 70%; viability at 72 h, 500 µM [10]: 16%
